US5936097A, “4,9-ethano-benzo(F)isoindole derivatives as farnesyl transferase inhibitors” (Rhone-Poulenc Rorer, S.A., priority 1995, dated 1999)
pIC50: −log10 of the molar value.

The compounds below were run against T1, human farnesyl transferase (Homo sapiens, UniProt P49354+P49356) (assay: inhibition of farnesyl transferase ((3H) farnesyl transfer from (3H) FPP to p21 H-ras)). Settings: not given.
T1 construct: human farnesyl transferase purified from THP1 cell cultures; endogenous in cells; host or cells: THP1 cell cultures (enzyme purified from the cells)
Assay type: biochemical
Protocol: Farnesyl transferase activity is determined by the amount of (^3 H) farnesyl transferred from (^3 H) farnesylpyrophosphate [(^3 H) FPP] to the p21 H-ras protein. The standard reaction mixture is composed, for a final volume of […], of 50 mM Tris-HCl, 5 mM MgCl2, 5 mM dithiotreitol, 0.2% octyl b-D-glucopyranoside, 200 picomol p21 H-ras, 4.5 picomol (^3 H) FPP (activity 61000 dpm/picomol).
Reaction is initiated by adding approximately 5 ng of human farnesyl transferase purified from THP1 cell cultures. After incubation for 20 minutes at 37° C. in a microtitration plate containing 96 1-cm^3 wells per plate (Titer Plate®, Beckman), the reaction is stopped by adding 0.4 cm^3 of 0.1% SDS in methanol at 0° C. The mixture is then treated with 0.4 cm^3 of 30% trichloroacetic® acid (TCA) in methanol. The plates are left in ice for 1 hour. The precipitated contents are then retained on Filtermat®, Pharmacia), glass® fibre membranes with the filtration unit (Combi Cell Harvester®, Skatron), and rinsed with 6% trichloroacetic acid in distilled water. The membranes are dried in a microwave oven, then impregnated with scintillation medium by melting of Meltilex® (Pharmacia) under hot air, and lastly counted in cpm in a b-Plate counter® (LKB). Each test is repeated 3 times.
The unit of activity is defined as 1 picomole of (^3 H) FPP transferred to p21 H-ras in 20 minutes.
The percentage inhibition values are obtained by comparison of the tests with and without inhibitor after deduction of blanks, the IC50 values being measured on the basis of the inhibitions obtained with 9 different concentrations using Enzfitter® or Grafit® software.

| Compound | pIC50 |
| --- | --- |
| COc1ccccc1CCC(=O)N1C[C@@H]2[C@]3(c4ccccc4)CC[C@@H](c4ccccc43)[C@]2(C(=O)O)C1 (relative stereo) [Example 59, (3aRS,4SR,9SR,9aRS)-4,9-Ethano-2-(2-methoxyphenyl)propionyl-9-phenyl-2,3,3a,4,9,9a-hexahydro-1H-benzo[f]isoindole-3a-carboxylic acid] | 5.30 |
| O=C(Cc1ccccc1O)N1C[C@@H]2[C@]3(c4ccccc4)CC[C@@H](c4ccccc43)[C@]2(C(=O)O)C1 (relative stereo) [Example 60, (3aRS,4SR,9SR,9aRS)-4,9-Ethano-2-(2-hydroxyphenyl)acetyl-9-phenyl-2,3,3a,4,9,9a-hexahydro-1H-benzo[f]isoindole-3a-carboxylic acid] | 5.74 |
| O=C(Cc1ccccc1Cl)N1C[C@@H]2[C@]3(c4ccccc4)CC[C@@H](c4ccccc43)[C@]2(C(=O)O)C1 (relative stereo) [Example 61, (3aRS,4SR,9SR,9aRS)-4,9-Ethano-2-(2-chlorophenyl)acetyl-9-phenyl-2,3,3a,4,9,9a-hexahydro-1H-benzo[f]isoindole-3a-carboxylic acid] | 5.33 |
| Cc1ccccc1CC(=O)N1C[C@@H]2[C@]3(c4ccccc4)CC[C@@H](c4ccccc43)[C@]2(C(=O)O)C1 (relative stereo) [Example 62, (3aRS,4SR,9SR,9aRS)-4,9-Ethano-2-(2-methylphenyl)acetyl-9-phenyl-2,3,3a,4,9,9a-hexahydro-1H-benzo[f]isoindole-3a-carboxylic acid] | 5.94 |
| O=C(Cc1ccccc1F)N1C[C@@H]2[C@]3(c4ccccc4)CC[C@@H](c4ccccc43)[C@]2(C(=O)O)C1 (relative stereo) [Example 63, (3aRS,4SR,9SR,9aRS)-4,9-Ethano-2-(2-fluorophenyl)acetyl-9-phenyl-2,3,3a,4,9,9a-hexahydro-1H-benzo[f]isoindole-3a-carboxylic acid] | 5.15 |
| COc1ccccc1CC(=S)N1C[C@@H]2[C@]3(c4ccccc4)CC[C@@H](c4ccccc43)[C@]2(C(=O)O)C1 (relative stereo) [Example 65, (3aRS,4SR,9SR,9aRS)-4,9-Ethano-2-(2-methoxyphenyl)thioacetyl-9-phenyl-2,3,3a,4,9,9a-hexahydro-1H-benzo[f]isoindole-3a-carboxylic acid] | 6.39 |
| COc1ccccc1NC(=O)N1C[C@@H]2[C@]3(c4ccccc4)CC[C@@H](c4ccccc43)[C@]2(C(=O)O)C1 (relative stereo) [Example 66, (3aRS,4SR,9SR,9aRS)-4,9-Ethano-2-(2-methoxyphenyl)aminocarbonyl-9-phenyl-2,3,3a,4,9,9a-hexahydro-1H-benzo[f]isoindole-3a-carboxylic acid] | 5.04 |
| CCOc1ccccc1CC(=O)N1C[C@H]2[C@@]3(c4ccccc4)CC[C@H](c4ccccc43)[C@@]2(C(=O)O)C1 (relative stereo) [Example 74, (3aRS,4SR,9SR,9aRS)-4,9-ethano-2-(2-ethoxyphenyl)acetyl-9-phenyl-2,3,3a,4,9,9a-hexahydro-1H-benzo[f]isoindole-3a-carboxylic acid] | 6.72 |

Same assay, conditions: human farnesyl transferase purified from THP1 cell cultures; p21 H-ras substrate; 20 minutes at 37° C.; 9 concentrations; read-out: in vitro inhibitory activity IC50

| Compound | pIC50 |
| --- | --- |
| COc1ccccc1CC(=O)N1C[C@@H]2[C@]3(c4ccccc4)CC[C@@H](c4ccccc43)[C@]2(C(=O)N(C)CC(=O)O)C1 (relative stereo) [Example 49, N-[(3aRS,4SR,9SR,9aRS)-4,9-ethano-2-(2-methoxyphenyl)acetyl-9-phenyl-2,3,3a,4,9,9a-hexahydro-1H-benzo[f]isoindol-3a-yl]carbonyl-N-methylglycine] | 5.96 |
| COc1ccccc1CC(=O)N1C[C@@H]2[C@]3(c4ccccc4)CC[C@@H](c4ccccc43)[C@]2(C(=O)NCCC(=O)O)C1 (relative stereo) [Example 50, N-[(3aRS,4SR,9SR,9aRS)-4,9-ethano-2-(2-methoxyphenyl)acetyl-9-phenyl-2,3,3a,4,9,9a-hexahydro-1H-benzo[f]isoindol-3a-yl]carbonyl-3-aminopropanoic acid] | 5.89 |
| CNC(=O)[C@@]12CN(C(=O)Cc3ccccc3OC)C[C@@H]1[C@]1(c3ccccc3)CC[C@H]2c2ccccc21 (relative stereo) [Example 54, (3aRS,4SR,9SR,9aRS)-N-methyl-4,9-ethano-2-(2-methoxyphenyl)acetyl-9-phenyl-2,3,3a,4,9,9a-hexahydro-1H-benzo[f]isoindole-3a-carboxamide] | 5.33 |
| COc1ccccc1CC(=O)N1C[C@@H]2[C@]3(c4ccccc4)CC[C@@H](c4ccccc43)[C@]2(C(=O)N(C)C)C1 (relative stereo) [Example 55, (3aRS,4SR,9SR,9aRS)-N,N-dimethyl-4,9-ethano-2-(2-methoxyphenyl)acetyl-9-phenyl-2,3,3a,4,9,9a-hexahydro-1H-benzo[f]isoindole-3a-carboxamide] | 5.41 |
| CONC(=O)[C@@]12CN(C(=O)Cc3ccccc3OC)C[C@@H]1[C@]1(c3ccccc3)CC[C@H]2c2ccccc21 (relative stereo) [Example 56, (3aRS,4SR,9SR,9aRS)-N-methoxy-4,9-ethano-2-(2-methoxyphenyl)acetyl-9-phenyl-2,3,3a,4,9,9a-hexahydro-1H-benzo[f]isoindole-3a-carboxamide] | 5.08 |
| COc1ccccc1CC(=O)N1C[C@@H]2[C@]3(c4ccccc4)CC[C@@H](c4ccccc43)[C@]2(C(=O)NN)C1 (relative stereo) [Example 58, hydrazide of (3aRS,4SR,9SR,9aRS)-4,9-ethano-2-(2-methoxyphenyl)acetyl-9-phenyl-2,3,3a,4,9,9a-hexahydro-1H-benzo[f]isoindole-3a-carboxylic acid] | 5.30 |
| O=C(Cc1ccccc1OCc1ccccc1)N1C[C@@H]2[C@]3(c4ccccc4)CC[C@@H](c4ccccc43)[C@]2(C(=O)O)C1 (relative stereo) [Example 64, (3aRS,4SR,9SR,9aRS)-4,9-Ethano-2-(2-benzyloxyphenyl)acetyl-9-phenyl-2,3,3a,4,9,9a-hexahydro-1H-benzo[f]isoindole-3a-carboxylic acid] | 6.12 |
| COc1ccccc1CC(=O)N1C[C@H]2[C@@]3(c4ccccc4)CC[C@H](c4ccccc43)[C@@]2(C(=O)NCC(=O)O)C1 (relative stereo) [Example 67, N-[(3aRS,4SR,9SR,9aRS)-4,9-ethano-2-(2-methoxy-phenyl)acetyl-9-phenyl-2,3,3a,4,9,9a-hexahydro-1H-benzo[f]isoindol-3a-yl]carbonylglycine] | 6.02 |
| COc1ccccc1CC(=O)N1C[C@H]2[C@@]3(c4ccccc4)CC[C@H](c4ccccc43)[C@@]2(C(=O)N(C)OC)C1 (relative stereo) [Example 68, (3aRS,4SR,9SR,9aRS)-N-methoxy-N-methyl-4,9-ethano-2-(2-methoxy-phenyl)acetyl-9-phenyl-2,3,3a,4,9,9a-hexahydro-1H-benzo[f]isoindole-3a-carboxamide] | 5.65 |
| COC(=O)CNC(=O)[C@]12CN(C(=O)Cc3ccccc3OC)C[C@H]1[C@@]1(c3ccccc3)CC[C@@H]2c2ccccc21 (relative stereo) [Example 69, methyl ester of N-[(3aRS,4SR,9SR,9aRS)-4,9-ethano-2-(2-methoxyphenyl)acetyl-9-phenyl-2,3,3a,4,9,9a-hexahydro-1H-benzo[f]isoindol-3a-yl]carbonylglycine] | 5.04 |
| COc1ccc2c(c1)[C@]1(c3ccccc3)CC[C@H]2[C@@]2(C(=O)O)CN(C(=O)Cc3ccccc3OC)C[C@@H]12 (relative stereo) [Example 70, (3aRS,4SR,9SR,9aRS)-4,9-ethano-7-methoxy-2-(2-methoxy-phenyl)acetyl-9-phenyl-2,3,3a,4,9,9a-hexahydro-1H-benzo[f]isoindole-3a-carboxylic acid] | 5.55 |
| C=Cc1ccc2c(c1)[C@]1(c3ccccc3)CC[C@H]2[C@@]2(C(=O)O)CN(C(=O)Cc3ccccc3OC)C[C@@H]12 (relative stereo) [Example 73, (3aRS,4SR,9SR,9aRS)-4,9-ethano-2-(2-methoxyphenyl)acetyl-9-phenyl-7-vinyl-2,3,3a,4,9,9a-hexahydro-1H-benzo[f]isoindole-3a-carboxylic acid] | 5.50 |
| O=C(Cc1cccc2c1OCCC2)N1C[C@H]2[C@@]3(c4ccccc4)CC[C@H](c4ccccc43)[C@@]2(C(=O)O)C1 (relative stereo) [Example 76, (3aRS,4SR,9SR,9aRS)-2-(8-chromanyl)acetyl-4,9-ethano-9-phenyl-2,3,3a,4,9,9a-hexahydro-1H-benzo[f]isoindole-3a-carboxylic acid] | 5.44 |
| C/C=C(/C(=O)N1C[C@H]2[C@@]3(c4ccccc4)CC[C@H](c4ccccc43)[C@@]2(C(=O)OC)C1)c1ccccc1OC (relative stereo) [Example 77, methyl ester of (3aRS,4SR,9SR,9aRS)-4,9-ethano-2-[2(E)-(2-methoxyphenyl)-2-butenoyl]-9-phenyl-2,3,3a,4,9,9a-hexahydro-1H-benzo[f]isoindole-3a-carboxylic acid] | 5.17 |
